In patent publication US20240228469A1, “PCSK9 INHIBITORS AND METHODS OF USE THEREOF” (AstraZeneca AB, priority 2022, published 2024):

Tests used:
[1] = biological target: T1, potassium ion channel hERG (Homo sapiens, UniProt Q12809); assay: Assay 5 hERG assay (patch clamp, CHO cells over-expressing hERG); type: cell-based; details: SyncroPatch 384PE, room temperature, geometric mean, read-out: Assay 5 (hERG Hu CHO if EPh CR-Syncro) GMean IC50
T1 construct: expressed in transfected cells; host or cells: Chinese hamster ovary K1 (CHO)
T1 sequence (Q12809 whole entry): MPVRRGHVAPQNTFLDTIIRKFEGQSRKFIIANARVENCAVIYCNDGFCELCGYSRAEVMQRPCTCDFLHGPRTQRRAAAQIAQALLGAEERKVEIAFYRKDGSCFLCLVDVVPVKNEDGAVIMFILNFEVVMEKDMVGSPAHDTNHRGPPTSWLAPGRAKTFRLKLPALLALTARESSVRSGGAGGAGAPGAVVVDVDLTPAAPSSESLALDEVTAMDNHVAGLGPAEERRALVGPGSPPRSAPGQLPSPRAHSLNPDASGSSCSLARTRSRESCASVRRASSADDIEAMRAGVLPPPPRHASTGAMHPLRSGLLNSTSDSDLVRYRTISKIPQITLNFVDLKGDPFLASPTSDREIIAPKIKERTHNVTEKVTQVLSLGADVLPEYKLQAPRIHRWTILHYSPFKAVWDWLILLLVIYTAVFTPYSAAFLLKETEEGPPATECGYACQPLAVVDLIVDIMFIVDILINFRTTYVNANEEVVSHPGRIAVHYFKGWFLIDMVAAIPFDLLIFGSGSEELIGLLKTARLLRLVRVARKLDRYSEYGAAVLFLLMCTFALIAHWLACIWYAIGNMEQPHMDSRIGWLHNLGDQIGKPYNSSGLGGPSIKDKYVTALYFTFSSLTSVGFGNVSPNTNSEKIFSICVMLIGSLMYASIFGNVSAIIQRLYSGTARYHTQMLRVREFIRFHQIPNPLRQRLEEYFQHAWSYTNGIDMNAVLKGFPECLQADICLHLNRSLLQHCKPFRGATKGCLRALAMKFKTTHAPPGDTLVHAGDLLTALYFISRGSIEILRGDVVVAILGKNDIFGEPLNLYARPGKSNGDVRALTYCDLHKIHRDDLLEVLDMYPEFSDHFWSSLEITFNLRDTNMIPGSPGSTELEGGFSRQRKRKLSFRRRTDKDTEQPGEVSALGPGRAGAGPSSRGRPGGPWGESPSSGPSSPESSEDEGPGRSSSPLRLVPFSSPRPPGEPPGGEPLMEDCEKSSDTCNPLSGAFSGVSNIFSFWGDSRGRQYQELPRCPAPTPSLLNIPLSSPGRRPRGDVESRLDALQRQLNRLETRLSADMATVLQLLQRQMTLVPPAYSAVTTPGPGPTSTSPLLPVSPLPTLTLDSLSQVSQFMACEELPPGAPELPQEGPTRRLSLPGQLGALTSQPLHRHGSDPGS
Method in brief: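 hERG currents recorded by automated patch clamp at room temperature in CHO-K1 cells, 6-point cumulative concentrations. SyncroPatch runs used KF-based internal (pH 7.2) and NMDG-containing external solution (pH 7.4), 0.33% DMSO; QPatchII runs used 2% or 0.4% DMSO. Only wells meeting seal-resistance and current-size criteria kept.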

[2] = biological target: T2, PCSK9 (Homo sapiens, UniProt Q8NBP7, G670E/V474I); assay: biochemical
T2 sequence (Q8NBP7 with tags, fused parts or gaps V474I/G670E): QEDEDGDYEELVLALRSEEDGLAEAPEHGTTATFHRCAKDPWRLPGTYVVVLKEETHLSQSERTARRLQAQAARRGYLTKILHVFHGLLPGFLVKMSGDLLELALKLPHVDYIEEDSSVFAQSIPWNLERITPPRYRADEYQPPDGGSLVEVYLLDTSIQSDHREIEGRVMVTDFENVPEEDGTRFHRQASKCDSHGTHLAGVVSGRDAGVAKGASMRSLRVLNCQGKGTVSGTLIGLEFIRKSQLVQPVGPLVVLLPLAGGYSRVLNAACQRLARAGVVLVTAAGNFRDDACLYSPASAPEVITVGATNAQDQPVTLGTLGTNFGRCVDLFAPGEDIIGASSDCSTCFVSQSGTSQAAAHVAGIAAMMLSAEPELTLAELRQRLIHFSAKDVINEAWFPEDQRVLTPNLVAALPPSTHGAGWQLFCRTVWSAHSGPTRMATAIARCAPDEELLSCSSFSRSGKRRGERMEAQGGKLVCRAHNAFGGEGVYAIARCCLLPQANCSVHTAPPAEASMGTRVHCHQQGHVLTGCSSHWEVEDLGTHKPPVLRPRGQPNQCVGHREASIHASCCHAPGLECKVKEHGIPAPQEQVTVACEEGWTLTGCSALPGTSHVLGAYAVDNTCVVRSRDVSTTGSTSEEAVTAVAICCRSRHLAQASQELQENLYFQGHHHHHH

[3] = biological target: T2, PCSK9; assay: Assay 3 PCSK9 LDL-C uptake assay in HepG2 cells; type: cell-based; design: TEV site (C); His6 (C); host or cells: added to HepG2 (ATCC #HB-8065); details: 125 nM PCSK9, pHrodo Red-LDL, read-out: Assay 3 LDL uptake potency
Text: This assay measures for PCSK9 antagonist activity based on a test compound's capacity to restore LDL-C-uptake in HepG2 cells. The assay is based on exogenous PCSK9 and LDL-C complexed with a pH-sensitive dye. Outside the cells, at neutral pH, the pHrodo Red-LDL is dimly fluorescent but upon LDLR mediated endocytosis it fluoresces brightly. PCSK9 traffics the LDLR to intracellular degradation and reduces uptake of LDL-C. Inhibition of PCSK9 reduces LDLR degradation and the increased LDL-C uptake is quantified by fluorescence microscopy.
• Cell medium: MEM supplemented with 10% FBS, 1×NEAA and Sodium Pyruvate • Assay medium: OptiMem supplemented with penicillin/streptomycin • Cells: HepG2 (ATCC #HB-8065)
• 1. Cryopreserved HepG2 cells were thawed in assay medium and centrifuged for 5 min at 250 g. Supernatant was discarded and the cell pellet resuspended in cell medium and counted with a Nucleocounter. Cells were again centrifuged 5 min at 250 g and the pellet was resuspended to 500000 cells/mL in assay medium. • 2. 20 μL of above cell mix was dispensed into black μclear TC treated 384 well plates with Multidrop Combi and left at room temperature for 20 minutes. • 3. Plates were incubated at 37° C., 5% CO2 for 24 h
• 1. Test compounds were prepared in concentration response in DMSO with a half-log dilution factor in DMSO in Echo 384 LDV plates starting at 10 mM. • 2. 30 nL of above test compounds were dispensed with Echo 655 to cells for a top concentration of 10 μM • 3. 10 μL PCSK9 in assay medium was dispensed to cells with Multidrop Combi for 125 nM final concentration in the wells. • 4. Plates were incubated at 37° C., 5% CO2 for 24 h
• 1. 10 μL pHrodo Red-LDL in assay medium was dispensed to cells with Multidrop Combi for […] • 2. Plates were incubated at 37° C., 5% CO2 and imaged with the Incucyte S3 after 4 h and 24 h
Image data was processed using Incucyte 2021, a software to identify cells and red fluorescent intensity. Screener was used to further process data. Data was normalized as % effect of the signal between median values of the on-plate controls of DMSO and 100 nM Evolocumab according to the formula % effect=−100*(x−DMSO)/(Evolocumab−DMSO) where x equals the measured signal. Concentration response data of the normalized values were fitted using a four-parameter logistic fit.

Structure (SMILES)	IC50 [1]	IC50 [2]	EC50 [3]
O=c1ccccn1-c1ccc(N[C@H]2CC[C@H](Nc3ncc(C4CC4)nn3)C2)nc1 [Example 50, 6′-(((1S,3S)-3-((6-Cyclopropyl-1,2,4-triazin-3-yl)amino)cyclopentyl)amino)-2H-[1,3′-bipyridin]-2-one]	> 40 µM	0.008 µM	0.3 µM
O=c1c(C(F)(F)F)cccn1-c1ccc(N[C@H]2CC[C@H](Nc3ncc(C4CC4)nn3)C2)nc1 [Example 51, 6′-(((1S,3S)-3-((6-Cyclopropyl-1,2,4-triazin-3-yl)amino)cyclopentyl)amino)-3-(trifluoromethyl)-2H-[1,3′-bipyridin]-2-one]	10.8 µM	0.0018 µM	0.1 µM
O=c1c(OC(F)(F)F)cccn1-c1ccc(N[C@H]2CC[C@H](Nc3ncc(C4CC4)nn3)C2)nc1 [Example 52, 6′-(((1S,3S)-3-((6-Cyclopropyl-1,2,4-triazin-3-yl)amino)cyclopentyl)amino)-3-(trifluoromethoxy)-2H-[1,3′-bipyridin]-2-one]	39.9 µM	0.0023 µM	0.1 µM
O=c1c(Cl)cccn1-c1ccc(N[C@H]2CC[C@H](Nc3ncc(C4CC4)nn3)C2)nc1 [Example 55, 3-Chloro-6′-(((1S,3S)-3-((6-cyclopropyl-1,2,4-triazin-3-yl)amino)cyclopentyl)amino)-2H-[1,3′-bipyridin]-2-one]	30.3 µM	0.001 µM	0.1 µM
N#Cc1ccc(=O)n(-c2ccc(N[C@H]3CC[C@H](Nc4ncc(C5CC5)nn4)C3)nc2)c1 [Example 56, 6′-(((1S,3S)-3-((6-Cyclopropyl-1,2,4-triazin-3-yl)amino)cyclopentyl)amino)-2-oxo-2H-[1,3′-bipyridine]-5-carbonitrile]	34.9 µM	0.009 µM	0.3 µM
CN1CC(=O)N(c2ccc(N[C@H]3CC[C@H](Nc4ncc(C5CC5)nn4)C3)nc2)C1=O [Example 57, 3-(6-(((1S,3S)-3-((6-Cyclopropyl-1,2,4-triazin-3-yl)amino)cyclopentyl)amino)pyridin-3-yl)-1-methylimidazolidine-2,4-dione]	> 40 µM	0.011 µM	0.5 µM
N#Cc1cccn(-c2ccc(N[C@H]3CC[C@H](Nc4ncc(C5CC5)nn4)C3)nc2)c1=O [Example 58, 6′-(((1S,3S)-3-((6-Cyclopropyl-1,2,4-triazin-3-yl)amino)cyclopentyl)amino)-2-oxo-2H-[1,3′-bipyridine]-3-carbonitrile]	> 40 µM	0.0016 µM	0.1 µM
CN1C(=O)CN(c2ccc(N[C@H]3CC[C@H](Nc4ncc(C5CC5)nn4)C3)nc2)C1=O [Example 62, 1-(6-(((1S,3S)-3-((6-Cyclopropyl-1,2,4-triazin-3-yl)amino)cyclopentyl)amino)pyridin-3-yl)-3-methylimidazolidine-2,4-dione]	36.3 µM	0.0065 µM	0.3 µM
Cn1c(=O)n(-c2ccc(N[C@H]3CC[C@H](Nc4ncc(C5CC5)nn4)C3)nc2)c2ncccc21 [Example 63, 3-(6-(((1S,3S)-3-((6-Cyclopropyl-1,2,4-triazin-3-yl)amino)cyclopentyl)amino)pyridin-3-yl)-1-methyl-1,3-dihydro-2H-imidazo[4,5-b]pyridin-2-one]	> 40 µM		0.1 µM
COc1cccn(-c2ccc(N[C@H]3CC[C@H](Nc4ncc(C5CC5)nn4)C3)nc2)c1=O [Example 64, 6′-(((1S,3S)-3-((6-Cyclopropyl-1,2,4-triazin-3-yl)amino)cyclopentyl)amino)-3-methoxy-2H-[1,3′-bipyridin]-2-one]	> 40 µM	0.0015 µM	0.2 µM
COc1ccc(=O)n(-c2ccc(N[C@H]3CC[C@H](Nc4ncc(C5CC5)nn4)C3)nc2)c1 [Example 65, 6′-(((1S,3S)-3-((6-Cyclopropyl-1,2,4-triazin-3-yl)amino)cyclopentyl)amino)-5-methoxy-2H-[1,3′-bipyridin]-2-one]	38.8 µM	0.0118 µM	0.5 µM
Cc1cccn(-c2ccc(N[C@H]3CC[C@H](Nc4ncc(C5CC5)nn4)C3)nc2)c1=O [Example 66, 6′-(((1S,3S)-3-((6-Cyclopropyl-1,2,4-triazin-3-yl)amino)cyclopentyl)amino)-3-methyl-2H-[1,3′-bipyridin]-2-one]	> 40 µM	0.0017 µM	0.1 µM
Cc1cnc(N[C@H]2CC[C@H](Nc3ccc(-n4ccccc4=O)cn3)C2)nn1 [Example 67, 6′-(((1S,3S)-3-((6-Methyl-1,2,4-triazin-3-yl)amino)cyclopentyl)amino)-2H-[1,3′-bipyridin]-2-one]	> 40 µM	0.016 µM	0.6 µM
C#CCNC(=O)c1cnc(N[C@H]2CC[C@H](Nc3ccc(-n4ccccc4=O)cn3)C2)nn1 [Example 69, 3-(((1S,3S)-3-((2-Oxo-2H-[1,3′-bipyridin]-6′-yl)amino)cyclopentyl)amino)-N-(prop-2-yn-1-yl)-1,2,4-triazine-6-carboxamide]	> 40 µM	0.02 µM	0.2 µM
O=C(NC1COC1)c1cnc(N[C@H]2CC[C@H](Nc3ccc(-n4ccccc4=O)cn3)C2)nn1 [Example 70, N-(Oxetan-3-yl)-3-(((1S,3S)-3-((2-oxo-2H-[1,3′-bipyridin]-6′-yl)amino)cyclopentyl)amino)-1,2,4-triazine-6-carboxamide]	> 40 µM	0.019 µM	0.2 µM
CNC(=O)c1cnc(N[C@H]2CC[C@H](Nc3ccc(-n4ccccc4=O)cn3)C2)nn1 [Example 75, N-Methyl-3-(((1S,3S)-3-((2-oxo-2H-[1,3′-bipyridin]-6′-yl)amino)cyclopentyl)amino)-1,2,4-triazine-6-carboxamide]	> 40 µM	0.033 µM	0.7 µM
O=c1ccc(Cl)cn1-c1ccc(N[C@H]2CC[C@H](Nc3ncc(C4CC4)nn3)C2)nc1 [Example 112, 5-Chloro-6′-(((1S,3S)-3-((6-cyclopropyl-1,2,4-triazin-3-yl)amino)cyclopentyl)amino)-2H-[1,3′-bipyridin]-2-one]	> 40.1 µM	0.0047 µM	0.2 µM
O=c1ccncn1-c1ccc(N[C@H]2CC[C@H](Nc3ncc(C4CC4)nn3)C2)nc1 [Example 114, 3-(6-(((1S,3S)-3-((6-Cyclopropyl-1,2,4-triazin-3-yl)amino)cyclopentyl)amino)pyridin-3-yl)pyrimidin-4(3H)-one]	18.6 µM	0.0076 µM	0.3 µM
Cn1c(=O)n(-c2ccc(N[C@H]3CC[C@H](Nc4ncc(C5CC5)nn4)C3)nc2)c2cc(C#N)ccc21 [Example 116, 3-(6-(((1S,3S)-3-((6-Cyclopropyl-1,2,4-triazin-3-yl)amino)cyclopentyl)amino)pyridin-3-yl)-1-methyl-2-oxo-2,3-dihydro-1H-benzo[d]imidazole-5-carbonitrile]	12 µM	0.0007 µM	0.1 µM
Cn1c(=O)n(-c2ccc(N[C@H]3CC[C@H](Nc4ncc(C5CC5)nn4)C3)nc2)c2ccc(C#N)cc21 [Example 117, 1-(6-(((1S,3S)-3-((6-Cyclopropyl-1,2,4-triazin-3-yl)amino)cyclopentyl)amino)pyridin-3-yl)-3-methyl-2-oxo-2,3-dihydro-1H-benzo[d]imidazole-5-carbonitrile]	6.3 µM	0.001 µM	0.3 µM
O=c1cccnn1-c1ccc(N[C@H]2CC[C@H](Nc3ncc(C4CC4)nn3)C2)nc1 [Example 118]	> 40 µM	0.0074 µM	0.5 µM
